Assay results published in publication PMC12442099 (ACS Infectious Diseases, 2025).
≈ marks a conversion by molar mass, not a printed value.

Tests used:
E. coli TOP10F’ = assay: NPN uptake assay (outer membrane permeability); format: cell-based; conditions: 1 h, 10 μM NPN
Protocol: To investigate the effect of our quinolone hits on membrane permeability, we performed a 1-N- phenylnaphthylamine NPN uptake assay (Figure ), as described previously. NPN is a hydrophobic fluorophore that is unable to cross the OM under normal conditions.
6 Effect of compounds (A) A2 and (B) B1 on membrane integrity analyzed by NPN permeability. Polymyxin B was used at 1 μM and PMBN at 4 μM as membrane permeabilizing control compounds. Data represent the average relative fluorescence values of three independent experiments performed in triplicate. Error bars represent standard deviation of three independent experiments. Data were analyzed using a One-Way ANOVA with Dunnett’s multiple comparisons. **: p = 0.0017; ****: p < 0.0001.
ONC of E. coli TOP10F’ grown in LB were diluted to OD600 = 0.1 and subsequently grown until OD600 0.5 was reached. Bacterial cells were then pelleted at 1,000g for 10 min and resuspended in assay buffer (5 mM HEPES + 20 mM glucose, pH 7.2) to 1.0 OD600 units/ml. The cell suspension was then added to a black, clear bottom 96-well plate (Greiner Bio-One) at a final concentration of 0.5 OD600 units/ml. […] NPN fluorescence (Ex./Em. λ 355, 420) was measured after 1h incubation at room temperature. Relative fluorescence was calculated following the correction of NPN fluorescence in the absence of compound: NPNuptake=[Fobs−Fb]/[Fcontrol−Fb]

[1] = test system: Rcs cell envelope stress response in Escherichia coli; assay: Rcs stress reporter assay, HTS format, dose-response curves; format: cell-based; conditions: for Emax: read-out: Max. effect (%); for EC50: read-out: pEC50 (converted)
Protocol: We adapted the reporter assay based on the Rcs stress system for HTS in a screening program at the ELF as the first bacterial phenotypic screen used in this setting. , The assay was performed in a 1536-well format using 25 μM PMBN as a reference (set at 100% effect).
The ELF screened their extensive and diverse library consisting of >500,000 small molecules at a concentration of 10 μM. The assay window (S/B) and Z’ values remained stable (2.0–15.2 and 0.50–0.90, respectively) throughout the screening campaign. The detailed standard screening procedure of the ELF is outlined elsewhere. An overview of the selection process of the screening campaign performed here is outlined in Figure . Initially, 340 compounds with an effect ≥20% of the reference compound PMBN were considered biologically active. Usually, up to 1% of the input library is selected for confirmatory, dose–response, orthogonal and deselection assays. Because the number of biological actives identified in this assay was well below the 1% limit, no orthogonal assays were performed. Instead, all compounds were reordered and tested as dilution series in the Rcs assay to generate dose–response curves (DRCs). Each compound’s pEC50 (−log of EC50, defined as the concentration (mol/L) at which 50% effect is achieved) was determined, and compounds with a pEC50 ≥ 4.7 were selected for further analysis. Next, the compounds were subjected to a mammalian cell-based cytotoxicity assay to exclude toxic compounds that may have a generic effect on membrane integrity. Compounds that reduced mammalian cell viability by 50% were considered cytotoxic. The qualified hit list (QHL) was then generated following triaging based on LC-MS analysis and pEC50 values.
Overnight cultures (ONCs) were prepared by inoculating 5 mL medium from glycerol stocks and incubating the culture for 16–18 h. ONCs were then diluted to an OD600 of 0.05 and grown until an OD600 of 0.3–0.4 was reached.
Assay robustness was confirmed by testing its sensitivity to assay-interfering agents, including colored, aggregating and fluorescent compounds. […] For HTS, bacteria were diluted 50x in prewarmed medium. Fifteen nL of assay compounds (10 μM), DMSO (0.25%), or the reference compound polymyxin B nonapeptide (PMBN) at 25 μM were added to 1536 well plates. Next, 6 μL culture aliquots were added to assay plates containing compounds. Plates were briefly centrifuged for 1 min at 150 x g. Plates were incubated at 37 °C with high humidity and fluorescence (Ex./Em. λ: 485/528 nm) was measured at T = 0 and T = 150 min using a ClarioStar plate reader (BMG Labtech). For data analysis, T = 0 values were subtracted from T = 150 values to calculate Z-score and % effect compared to the reference compound.
Dose–response curves of the 340 initial active compounds were determined following the preparation of serial dilutions (20 nM–20 μM; 7 points, √10). The % effect compared to the reference compound PMBN was calculated and plotted for each compound dilution. The resulting plots were used to calculate pEC50 (-log(EC50), with EC50 being determined as the concentration at which a 50% effect is observed).

E. coli TOP10F' = assay: Growth inhibition after 7 hours (EC80/EC50); conditions: for EC50 / IC80: Escherichia coli, 7 h; for EC50: read-out: EC50 TOP10F'; for IC80: read-out: EC80 TOP10F'
[2] = test system: SOS stress response in E. coli MC4100; assay: SOS stress reporter assay (PlexA-mNG); format: cell-based; conditions: EC80 compound concentrations (Fig. 5A); Fig. S4
Source text: To examine the potential link between DNA gyrase inhibition, SOS stress, and CE stress, we designed a fluorescent SOS reporter plasmid, similar to the reporter plasmids used to study CE stresses.
5 (A) SOS stress induced by different compounds at EC80 concentrations in E. coli MC4100. (B) Rcs stress of different compounds at EC80 concentrations in E. coli MC4100. (C) Rcs stress of the nonquinolone gyrase inhibitor LEI-800 in TOP10F’. (D) Rcs stress induced by mitomycin C in E. coli TOP10F’ and E. coli MC4100. Graphs show fold change in fluorescence adjusted for bacterial growth (OD600). Error bars indicate standard deviation of triplicates. Data are representative of two independent experiments with similar results.

Row | SMILES | NPN relative fluorescence (membrane permeability) (E. coli TOP10F’) | Emax [1] [%] | EC50 [1] [nM] | EC50 (E. coli TOP10F') [µg/mL] | IC80 (E. coli TOP10F') [µg/mL] | EC80 concentration (E. coli TOP10F'; as quoted in the NPN section) | SOS stress induction in MC4100 [2]
1 | CC(C)(C)n1cc(C(=O)O)c(=O)c2cc(F)c(N3CC4CC3CN4)nc21 (stereo not shown) [A2] | significant increase in relative fluorescence at 4 and 16 μM | 26.6 | 107 | 0.016 (≈ 0.0444 µM) | 0.063 (≈ 0.175 µM) | around 0.35 μM | induced SOS stress at similar levels as the FQ lomefloxacin
2 | O=C1COc2ccc(CNC3CCN(CC4Cc5c(F)cc(F)c6ccc(=O)n4c56)CC3)nc2N1 (stereo not shown) [B1] | did not exhibit an increase in fluorescence | 53.3 | 282 | 0.031 (≈ 0.0644 µM) | 0.5 (≈ 1.04 µM) | – | induced SOS stress at similar levels as the FQ lomefloxacin
